Results taken from paper PMC8757511 (ACS Medicinal Chemistry Letters, 2021).
In brackets after ≈: the same amount, converted by molar mass.

Columns and labels:
[1] = system: THP-1 human macrophage cell line
Cdk2-Cyclin A = Cdk2-Cyclin A (Homo sapiens, UniProt P24941); experiment: biochemical; assay type: biochemical
[2] = system: M. tuberculosis strain, H37Ra (ATCC 25177); experiment: microbe, parasite or virus in culture; assay type: cell-based, Mycobacterium tuberculosis; settings: for MIC: Mycobacterium tuberculosis, ATCC25177|H37RA, read-out: Mtb MIC
[3] = system: Zebrafish (Danio rerio) embryos; settings: 5 days
PknB [4] = biological target: T1, PknB (Mycobacterium tuberculosis, UniProt P9WI81); experiment: biochemical; assay type: biochemical
Target sequence in this assay (P9WI81 1-331 limits assumed): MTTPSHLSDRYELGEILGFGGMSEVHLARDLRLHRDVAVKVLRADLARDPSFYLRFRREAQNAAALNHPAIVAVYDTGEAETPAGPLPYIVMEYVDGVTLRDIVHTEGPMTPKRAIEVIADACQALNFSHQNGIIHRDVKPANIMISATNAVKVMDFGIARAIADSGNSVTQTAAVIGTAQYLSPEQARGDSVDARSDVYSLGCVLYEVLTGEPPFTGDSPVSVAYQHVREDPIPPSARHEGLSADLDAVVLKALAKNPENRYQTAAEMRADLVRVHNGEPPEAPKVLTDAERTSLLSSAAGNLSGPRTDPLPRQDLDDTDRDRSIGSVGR

physchem = settings: pH 7.4, LogD7.4, pH 7.4
PknB [5] = biological target: T1, PknB; experiment: biochemical; assay type: binding
Target sequence in this assay (P9WI81 1-331 limits assumed): as above

[6] = system: 453 human kinases (403 wild-type and 50 mutant); assay type: binding; settings: 10 μM, KinomeSCAN
PknB [7] = biological target: T1, PknB; assay type: binding; settings: DiscoverX Kd
Target sequence in this assay (P9WI81 whole entry): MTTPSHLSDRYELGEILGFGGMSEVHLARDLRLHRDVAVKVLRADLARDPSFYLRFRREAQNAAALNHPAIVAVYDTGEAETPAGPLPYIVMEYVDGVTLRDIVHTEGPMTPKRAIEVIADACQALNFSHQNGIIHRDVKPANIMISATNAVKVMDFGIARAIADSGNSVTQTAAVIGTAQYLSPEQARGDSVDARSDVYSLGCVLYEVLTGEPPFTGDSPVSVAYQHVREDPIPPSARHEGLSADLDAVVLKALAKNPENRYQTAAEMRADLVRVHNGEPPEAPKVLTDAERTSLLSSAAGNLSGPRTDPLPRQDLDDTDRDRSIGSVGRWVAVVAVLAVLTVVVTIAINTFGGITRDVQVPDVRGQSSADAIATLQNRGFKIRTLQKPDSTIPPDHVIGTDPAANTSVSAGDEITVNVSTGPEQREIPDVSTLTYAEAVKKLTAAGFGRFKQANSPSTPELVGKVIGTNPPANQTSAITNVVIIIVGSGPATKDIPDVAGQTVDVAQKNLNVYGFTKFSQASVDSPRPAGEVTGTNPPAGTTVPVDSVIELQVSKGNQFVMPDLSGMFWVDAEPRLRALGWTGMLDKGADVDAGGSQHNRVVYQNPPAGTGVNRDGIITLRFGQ

SMILES	reduction in Cdk2 biochemical inhibition relative to 1 (Cdk2-Cyclin A)	MIC [2] [µM]	% D. rario survival @ 5 μM [3] [%]	other results
CN1CCN(c2ccc(Nc3nccc(-c4cccc(Cl)c4)n3)cc2C(F)(F)F)CC1 [Compound 16]	greater than 28 fold	≤ 19	–	improvement in cytotoxicity over 1 ([1]; THP-1, relative to 1): > 2 log unit
CN1CCN(c2ccc(Nc3nccc(-c4ccnc(Cl)c4)n3)cc2C(F)(F)F)CC1 [Compound 6]	–	–	~100	–
CN1CCN(c2ccc(Nc3nccc(-c4ccncc4)n3)cc2C(F)(F)F)CC1 [Compound 5]	–	50 (≈ 20.7 µg/mL)	30	IC50 (PknB [4]): 2100 nM; Ki (PknB [4]): 580 nM; logD (physchem): 3.57; IC50 (Cdk2-Cyclin A): 4.6 µM; worse Mtb MIC than 1 [2]: 2–4 fold; Kd (PknB [5]): 78 nM
CN1CCN(c2ccc(Nc3nccc(-c4cccnc4)n3)cc2C(F)(F)F)CC1 [Compound 4]	–	–	–	worse Mtb MIC than 1 [2]: 2–4 fold
CN1CCN(c2ccc(Nc3nccc(-c4ccc5ccccc5c4)n3)cc2C(F)(F)F)CC1 [Compound 20]	–	–	~100	improvement in THP-1 cytotoxicity relative to 1 ([1]; relative to 1): > 60 fold; loss in PknB activity relative to 19 (PknB [4]): 3 fold; lower MIC than inhibitor 19 [2]: 2 fold
CN1CCN(c2ccc(Nc3nccc(-c4ccccc4)n3)cc2C(F)(F)F)CC1 [Compound 9]	greater than 28 fold	–	~100	selectivity score (S-score) at 1% of control (S(1)) [6]: 0.084
Cc1ccc(-c2ccnc(Nc3ccc(N4CCN(C)CC4)c(C(F)(F)F)c3)n2)cc1 [Compound 12]	greater than 28 fold	≤ 19	0	–
CN1CCN(c2ccc(Nc3nccc(-c4ccc(Cl)cc4)n3)cc2C(F)(F)F)CC1 [Compound 11]	greater than 28 fold	–	–	–
CN1CCN(c2ccc(Nc3nccc(-c4cccc([N+](=O)[O-])c4)n3)cc2C(F)(F)F)CC1 [Compound 19]	–	≤ 19	0	affinity for PknB vs GSK3β, mTOR, and Pim1 (PknB [7]): > 100 fold; selectivity score (S-score) at 1% of control (S(1)) [6]: 0.12
CNc1cc(-c2ccnc(Nc3ccc(N4CCN(C)CC4)c(C(F)(F)F)c3)n2)ccn1 [Compound 8]	28 fold	–	–	loss of PknB activity relative to 1 (PknB [4]; relative to 1): 6 fold
